Test results reported in PubChem BioAssay (NCI).
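Interpolation was linear, between the two tested concentrations surrounding the appropriate level; five concentrations were tested over 48 hours in 96-well plates. GI50: concentration for 50% inhibition of growth. TGI denotes the concentration required for complete inhibition of growth.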

Experiments:
Test in all cases: NCI anticancer screen, dose series, 48 h
[1] = system: PC-3 prostate
[2] = system: SW-620 colon
[3] = system: SK-MEL-2 melanoma
[4] = system: HT29 colon
[5] = system: ACHN renal
[6] = system: SF-268 CNS
[7] = system: NCI-H226 lung
[8] = system: MALME-3M melanoma
[9] = system: OVCAR-5 ovarian
[10] = system: NCI-H23 lung
[11] = system: UO-31 renal
[12] = system: M14 melanoma
[13] = system: U251 CNS
[14] = system: DU-145 prostate
[15] = system: A549 NSCLC
[16] = system: CCRF-CEM leukemia
[17] = system: NCI-H522 lung
[18] = system: SNB-19 CNS
[19] = system: EKVX NSCLC
[20] = system: SK-MEL-5 melanoma
[21] = system: OVCAR-8 ovarian
[22] = system: OVCAR-4 ovarian
[23] = system: HL-60(TB) leukemia
[24] = system: MOLT-4 leukemia
[25] = system: LOX IMVI melanoma
[26] = system: SN12C renal
[27] = system: HCC-2998 colon
[28] = system: CAKI-1 renal
[29] = system: A498 renal
[30] = system: HS 578T breast
[31] = system: 786-0 renal
[32] = system: K-562 leukemia
[33] = system: SK-MEL-28 melanoma
[34] = system: MCF7 breast
[35] = system: RXF 393 renal
[36] = system: SNB-75 CNS
[37] = system: T-47D breast
[38] = system: OVCAR-3 ovarian
[39] = system: NCI/ADR-RES ovarian
[40] = system: SF-295 CNS
[41] = system: HCT-15 colon
[42] = system: HOP-62 NSCLC
[43] = system: SF-539 CNS
[44] = system: NCI-H460 lung
[45] = system: TK-10 renal
[46] = system: MDA-MB-231 breast
[47] = system: RPMI-8226 leukemia
[48] = system: BT-549 breast
[49] = system: COLO 205 colon
[50] = system: MDA-MB-435
[51] = system: IGROV1 ovarian
[52] = system: HOP-92 NSCLC
[53] = system: KM12 colon
[54] = system: UACC-62 melanoma
[55] = system: HCT-116 colon
[56] = system: SK-OV-3 ovarian

Work on `COC(=O)[C@]12CC[C@@H](C)[C@H](C)[C@@H]1C1=CC[C@@H]3[C@@]4(C)C[C@@H](OC(=O)/C=C/c5ccccc5)[C@H](O)[C@@](C)(CO)[C@@H]4[C@H](O)C[C@@]3(C)[C@]1(C)CC2` yielded a GI50 [1] of 2550 nM, a TGI [1] of 8.93 µM and a GI50 [2] of 1930 nM. The TGI [2] was 4.2 µM, the GI50 [3] was 3.81 µM and the TGI [3] was 15.5 µM. For the same compound, the GI50 [4] was 1800 nM, the TGI [4] was 3.81 µM and the GI50 [5] was 3.11 µM. It also gave a TGI [5] of 11.4 µM, a GI50 [6] of 2620 nM and a TGI [6] of 10.4 µM. For the same compound, the GI50 [7] was 2560 nM, the TGI [7] was 9.15 µM and the GI50 [8] was 2840 nM. It also gave a TGI [8] of 10.9 µM, a GI50 [9] of 2170 nM and a TGI [9] of 6 µM. For the same compound, the GI50 [10] was 2800 nM, the TGI [10] was 10.2 µM and the GI50 [11] was 2560 nM. It also gave a TGI [11] of 11.2 µM, a GI50 [12] of 2650 nM and a TGI [12] of 8.58 µM. It also gave a GI50 [13] of 1860 nM, a TGI [13] of 4.18 µM and a GI50 [14] of 2390 nM. The TGI [14] was 5.83 µM, the GI50 [15] was 3.11 µM and the TGI [15] was 12 µM. It also gave a GI50 [16] of 2880 nM, a TGI [16] of 10.4 µM and a GI50 [17] of 1530 nM. The TGI [17] was 3.36 µM, the GI50 [18] was 3.51 µM and the TGI [18] was 16.6 µM. It also gave a GI50 [19] of 2940 nM, a TGI [19] of 11.7 µM and a GI50 [20] of 1930 nM. It also gave a TGI [20] of 4.23 µM, a GI50 [21] of 3.2 µM and a TGI [21] of 11.5 µM. It also gave a GI50 [22] of 3.23 µM, a TGI [22] of 13.4 µM and a GI50 [23] of 2630 nM. For the same compound, the TGI [23] was 6.51 µM, the GI50 [24] was 2270 nM and the TGI [24] was 7.31 µM. The GI50 [25] was 1690 nM, the TGI [25] was 3.1 µM and the GI50 [26] was 1830 nM. For the same compound, the TGI [26] was 3.6 µM, the GI50 [27] was 2130 nM and the TGI [27] was 4.88 µM. The GI50 [28] was 3.27 µM, the TGI [28] was 11.9 µM and the GI50 [29] was 1070 nM. For the same compound, the TGI [29] was 4.83 µM, the GI50 [30] was 1880 nM and the TGI [30] was 4.71 µM. For the same compound, the GI50 [31] was 1870 nM, the TGI [31] was 3.82 µM and the GI50 [32] was 2450 nM. For the same compound, the TGI [32] was 6.05 µM, the GI50 [33] was 2690 nM and the TGI [33] was 9.36 µM. For the same compound, the GI50 [34] was 3.12 µM, the TGI [34] was 11.5 µM and the GI50 [35] was 1740 nM. For the same compound, the TGI [35] was 3.84 µM, the GI50 [36] was 2080 nM and the TGI [36] was 12.9 µM. It also gave a GI50 [37] of 2340 nM, a TGI [37] of 10.9 µM and a GI50 [38] of 1980 nM. It also gave a TGI [38] of 4.53 µM, a GI50 [39] of 2920 nM and a TGI [39] of 10.9 µM. It also gave a GI50 [40] of 2270 nM, a TGI [40] of 5.75 µM and a GI50 [41] of 1930 nM. It also gave a TGI [41] of 4.02 µM, a GI50 [42] of 1910 nM and a TGI [42] of 5.43 µM. For the same compound, the GI50 [43] was 2080 nM, the TGI [43] was 4.77 µM and the GI50 [44] was 2120 nM. The TGI [44] was 4.7 µM, the GI50 [45] was 2260 nM and the TGI [45] was 6.33 µM. For the same compound, the GI50 [46] was 1950 nM, the TGI [46] was 4.17 µM and the GI50 [47] was 2540 nM. For the same compound, the TGI [47] was 7.86 µM, the GI50 [48] was 1760 nM and the TGI [48] was 3.97 µM. The GI50 [49] was 1910 nM, the TGI [49] was 4.12 µM and the GI50 [50] was 2440 nM. The TGI [50] was 6.47 µM, the GI50 [51] was 3.61 µM and the TGI [51] was 14 µM. It also gave a GI50 [52] of 2110 nM, a TGI [52] of 6.42 µM and a GI50 [53] of 2050 nM. It also gave a TGI [53] of 5.36 µM, a GI50 [54] of 2830 nM and a TGI [54] of 11.4 µM. It also gave a GI50 [55] of 1950 nM, a TGI [55] of 3.79 µM and a GI50 [56] of 3.91 µM. It also gave a TGI [56] of 14.3 µM.
